Source: US20080096208A1, “BIOMARKERS FOR ASSESSING RESPONSE TO C-MET TREATMENT” (priority 2006, published 2008)

How the values were obtained:
[1] = system: PC-3 prostate carcinoma cells; experiment: Taqman real-time PCR of marker mRNA levels in HGF-stimulated PC-3 cells; type: cell-based
Excerpt: In order to identify biomarkers for the HGF response and potential inhibition of this response by small molecule HGF receptor (c-met) inhibitors, a micro array analysis of PC-3 cells stimulated by HGF over a time course of 1 hr to 2 days was used. TAQMAN was employed to examine mRNA levels of VEGF, CD44, Fibronectin, and MMP-1, each of which has been shown by others to be induced by HGF. Briefly, RNA is isolated by lysis of cultured cells or homogenization of tumor tissue in a guanidine solution, Trireagent from Molecular Research Center, Inc. The RNA is purified by a Qiagen column methodology under conditions recommended by the manufacturer and DNAse treated. Specific levels of mRNAs for the indicated genes are determined by Real-Time PCR, Taqman analysis using probes and primers specific for the genes examined and purchased from Applied Biosystems and the SDS2.1 quantitation software. Quantitation is performed by comparison of the cycle number where the sample crosses a threshold value vs a standard curve made of a pool of the RNA samples. Normalization is performed by comparing the amount of specific mRNA to that of 18S RNA or GAPDH mRNA. […] This response was then evaluated upon administration of the c-met inhibitor, 3DP-669366. […] The kinetics of the induction and the amplitude of the mRNA levels differ between the cell lines examined. The micro-array analysis identified LDL Receptor 1 (LDL-R1) as another protein that is induced by HGF and whose level of expression is diminished by treatment of cells with a HGF receptor inhibitor. This analysis was then evaluated upon administration of the acylhydrazone series of c-met inhibitors, JNJ-28823184 and JNJ-38429274. In in vivo tumor xenografts, the biomarkers identified by examination of cell culture responses to c-met inhibitors are also modulated in the in vivo setting. In a U87MG tumor xenograft in nude mice, a decrease in the mRNA levels of CD44, VEGF, LDLR1, and Osteopontin was observed.

PC-3 cells = experiment: Micro array analysis of PC-3 cells stimulated by HGF; type: cell-based
Excerpt: In order to identify biomarkers for the HGF response and potential inhibition of this response by small molecule HGF receptor (c-met) inhibitors, a micro array analysis of PC-3 cells stimulated by HGF over a time course of 1 hr to 2 days was used. TAQMAN was employed to examine mRNA levels of VEGF, CD44, Fibronectin, and MMP-1, each of which has been shown by others to be induced by HGF. Briefly, RNA is isolated by lysis of cultured cells or homogenization of tumor tissue in a guanidine solution, Trireagent from Molecular Research Center, Inc. The RNA is purified by a Qiagen column methodology under conditions recommended by the manufacturer and DNAse treated. Specific levels of mRNAs for the indicated genes are determined by Real-Time PCR, Taqman analysis using probes and primers specific for the genes examined and purchased from Applied Biosystems and the SDS2.1 quantitation software. Quantitation is performed by comparison of the cycle number where the sample crosses a threshold value vs a standard curve made of a pool of the RNA samples. Normalization is performed by comparing the amount of specific mRNA to that of 18S RNA or GAPDH mRNA. […] This response was then evaluated upon administration of the c-met inhibitor, 3DP-669366. […] This analysis was then evaluated upon administration of the acylhydrazone series of c-met inhibitors, JNJ-28823184 and JNJ-38429274. […]

[2] = between 8 and 48 hours following HGF addition, p<0.01

With “HGF: hepatocyte growth factor (also known as scatter factor), ligand of the c-met receptor” the “induction of Fibronectin mRNA by HGF” value [1] was “did not show a statistically significant induction”, the “induction of VEGF mRNA by HGF” value ([1]; between 8 and 48 hours following HGF addition, p<0.001) was “statistically significant induction” and the “induction of CD44 mRNA by HGF” value [1, 2] was “statistically significant induction”. The “induction of MMP-1 mRNA by HGF” value [1, 2] was “statistically significant induction” and the “induction of LDL Receptor 1 (LDL-R1) by HGF” value (PC-3 cells) was “induced”.
